Assay results taken from EP0385952A2, “Use of a naphthalenmethanamino derivative as antiinflammatory agent and pharmaceutical compositions containing it” (SANDOZ AG, priority 1989, dated 1990).

Tested on: lactate dehydrogenase release
Assay: Cytotoxicity: release of lactate dehydrogenase
Format: cell-based
Details: cytotoxicity control of the in vitro assays
Experimental: Macrophages 10 to 14 days old isolated from the bone marrow of mice are incubated in monolayers with the test compound in the presence of Concanavalin A (Con A) (100 µg/ml) as soluble stimulant. After 24 hours the cell-free medium is collected and macrophage activation is investigated biochemically as the extent of plasminogen activator release, assayed photometrically as the plasminogen-dependent amidolysis of D-Val-Phe-Lys-4-nitroanilide according to the principles described in J.C. Drapier et al., Biochemie 61 (1979) 463-471. Cell viability is assayed by measurement of lactate dehydrogenase release according to the method of H.U. Bergmeyer and E. Bernt, Methoden der Enzymatischen Analyse, 3. Auflage, Verlag Chemie (1974) 612-615, adapted as a kinetic assay using microtiter plates. All cultures are checked microscopically for qualitative morphological modification.
The test compound is added in various concentrations to monolayers of OF₁-mouse resident peritoneal macrophages isolated as described in J. Schnyder and M. Baggiolini, J. Exp. Med. 148 (1978) 435-450. […] The supernatants are then analysed by radioimmunoassay procedures for thromboxane B₂, prostaglandin E₂ and leukotriene C₄. Lactate dehydrogenase activities in the medium and cell lysates are also measured as an indication of cell toxicity.

In the case of `CN(C/C=C/c1ccc(O)cc1)Cc1cccc2ccccc12` [compound of the invention, (E)-N-methyl-N-[3-(4-hydroxyphenyl)-2-propenyl]-1-naphthalene-methanamine], the “release of lactate dehydrogenase” value is reported as “below 10%”.
